In ChEMBL document CHEMBL3507680, “University of Dundee, Gates Library screen for HepG2 cell viability”:

Assay: Human HepG2 cell viability assay in 384 well format
Format: toxicity, cell-based
Set-up: dose 125 nL, time 70.5 hour; cytotoxicity at 70.5 h: concentration not given beside the values
Details: HepG2 cells, read-out: Inhibition

Structure (SMILES) | cytotoxicity at 70.5 h
Nc1cc(-c2c[nH]nc2C2CCCCN2C(=O)C2CCCC2)ccn1 (stereo not given) | -7.49%
CN(C)S(=O)(=O)c1ccc(CNC(=O)C2CC(=O)N(C(C)(C)C)C2)cc1 (stereo not given) | -1.42%
Cc1nc(NC2CCOCC2)cc(C2CCN2S(C)(=O)=O)n1 (stereo not given) | -6.12%
Cc1cc(C)c2nc(C)c(C(=O)N3CCC(CCN(C)C)CC3)cc2c1 | -1.81%
Cc1ccnc(C2CN(Cc3cnn(-c4ccccc4C(=O)O)c3)C2)n1 | -6.57%
CN(C)c1nccnc1C1CCN(c2cnccn2)CC1 | -3.32%
Cc1cc(C(F)(F)F)nc(C2(C)CCCN2CC(N)=O)n1 (stereo not given) | 11.5%
CN(C)c1nccnc1C1CCCN(c2cnccn2)C1 (stereo not given) | -3.09%
CN1CCC(c2nnc3n2CCN(S(=O)(=O)c2ccccc2)C3)CC1 | -5.15%
CCOCCN1CCC(c2cncc(C)n2)CC1 | -1.63%
O=C(O)c1ccc(CN2CCCC(Cc3ccn[nH]3)C2)cc1 (stereo not given) | -4.91%
CC(C)S(=O)(=O)N1C[C@@H](O)[C@H](N(C)Cc2ccc(F)cc2)C1 | 0.65%
CCn1cc(C(=O)N2C[C@H]3C[C@H](Oc4ccccc4)C[C@H]3C2)cn1 | -0.374%
O=C(N[C@@H]1CN(Cc2c[nH]nc2-c2ccccc2)C[C@H]1O)c1cc[nH]n1 | -9.21%
CCc1cccc2cc(CN)c(=O)[nH]c12 | -10%
COCCNc1ncc(-c2onc(C)c2C)c(-c2ccco2)n1 | -5.67%
Cc1noc(-c2cnc(NC(C)C)nc2-c2ccco2)c1C | -13.3%
CS(=O)(=O)N1CCC(n2nnn(-c3ccccc3)c2=O)CC1 | -1.71%
Oc1nc(C2CC2)nc2c1nnn2C1CCN(Cc2ccoc2)CC1 | -6.55%
COCCN1CCCC(c2ccnc3c(C(N)=O)cnn23)C1 (stereo not given) | 3.17%
COCC(=O)N(C)Cc1nc(N(C)C)ncc1-c1ccncc1 | -11.3%
O=C(C1CC1)N1C[C@H]2CCCN(S(=O)(=O)c3ccc4c(c3)CCC4)[C@H]2C1 | 3.41%
CN(C)c1ncc(-c2ccncc2)c(CCNC(=O)C2CC2)n1 | -5.57%
CCc1ccccc1NC(=O)NCc1nnc(SC)n1C | -5.85%
COc1ccccc1NC(=O)NCc1nnc(SC)n1C | -5.92%
CSc1nnc(CNC(=O)Nc2ccccc2Br)n1C | -3.94%
Cc1cnc(-c2nc(C3CCN(Cc4ccccc4C)CC3)no2)cn1 | -8.63%

Structure (SMILES) | cytotoxicity at 70.5 h
Cn1cc(C2=NOC(C(=O)NC3(c4cccc(F)c4)CCCC3)C2)cn1 (stereo not given) | -4.3%
CCn1cc(S(=O)(=O)NCC(c2ccccc2)N2CCOCC2)c(C)n1 (stereo not given) | 18.1%
O=C(Nc1ccc2c(c1)OCCO2)c1ccc(=O)[nH]n1 | 15.5%
COCCC(=O)N1CCCC([C@@H]2C[C@H](C(F)F)n3ncnc3N2)C1 (stereo not given in full) | -4.06%
CC(=O)N1CCCC1c1ccc(Br)cn1 (stereo not given) | 1.79%
Cn1ncc2ccc(C3CCCN(C(=O)Cc4cccs4)C3)nc21 (stereo not given) | 13.1%
Cn1ccc(C(=O)NCC2(O)CCN(c3cnccn3)C2)n1 (stereo not given) | -1.53%
COc1ccc(F)cc1C(=O)N1C[C@H]2C[C@H](OC)C[C@H]2C1 | -6.25%
CO[C@H]1C[C@@H]2CN(C(=O)Cc3ccc(C)s3)C[C@@H]2C1 | -2.91%
CCn1ncc(S(=O)(=O)N[C@@H]2CC[C@@H](n3ccnc3C)[C@@H]2O)c1C | -5.15%
CO[C@@H]1CC[C@@H](NC(=O)c2ccc(OCCN3CCCC3)cc2)[C@H]1O | -4.63%
CO[C@H]1CN(Cc2nc3ccccc3n2C)C[C@@]12CCCO2 | 7.3%
Cc1cccc(C2CCCN(S(=O)(=O)c3cccnc3)C2)n1 (stereo not given) | -2.36%
CCN(CC)C(=O)c1cc(C2(C)CCN(C(C)=O)CC2)nc(C)n1 | 4.01%
Cc1c[nH]c(C2CCCN(C(=O)CCc3c(C)n[nH]c3C)C2)n1 (stereo not given) | -2.32%
Cc1cccc(CN2CCCC(c3nccs3)C2)n1 (stereo not given) | -1.28%
Cn1cc(C(=O)N2C[C@H]3C[C@H](Oc4ccccc4)C[C@H]3C2)cn1 | -3.01%
Cc1c[nH]nc1C1CCCN(c2cnccn2)C1 (stereo not given) | -2.27%
O=C1NC2(CCc3ccccc31)CCN(C(=O)c1ccncc1)C2 (stereo not given) | -3.88%
Cc1cnc(CC2COCCN(C(=O)c3cncs3)C2)cn1 (stereo not given) | -1.74%
COc1ccc2c(c1)CC(C1CCOCC1)N(C(=O)c1ccnn1C)C2 (stereo not given) | -0.842%
Cn1cccc1C(=O)N1CCCC1c1ccc(CN2CCOCC2)cn1 (stereo not given) | -1.35%
Cc1c(S(=O)(=O)N2CCCC2c2nnc(-c3ccsc3)o2)cnn1C (stereo not given) | 0.227%
O=C(c1cnc(C2CC2)nc1)N1CCCC(c2nccs2)C1 (stereo not given) | 27.6%
c1ccc(OCCN2CCC(c3cnccn3)CC2)cc1 | 3.59%
Cc1cc(C)c2nc(C)c(C(=O)N3CCC(N4CCCC4)CC3)cc2c1 | -0.523%
CN1CCOC(C)(C(=O)Nc2nc(C(C)(C)C)cs2)C1 (stereo not given) | 13.5%

Structure (SMILES) | cytotoxicity at 70.5 h
c1cc(C2CCN(C3CCCCC3)C2)n[nH]1 (stereo not given) | 2%
Cc1cc(C)nc(C2(C)CCCN2CCO)n1 (stereo not given) | -0.984%
Cc1ccc(Nc2nccc(C3CN(CC(N)=O)C3)n2)nc1 | -1.76%
CC1(C(=O)N2CCOCC2)CN(Cc2ccccn2)CCO1 (stereo not given) | 26.2%
CCC(=O)N1CCCC(c2cc(Nc3ncccn3)nc(C)n2)C1 (stereo not given) | -5.83%
Cn1ccc2ccnc(CC3CN(C(=O)C4CCC(F)(F)CC4)C3)c21 | 3.02%
COc1ccc(CN(C)CC2(O)CCN(C(=O)c3cccn3C)C2)cc1 (stereo not given) | 36.1%
CNc1cc(C2CCCN2Cc2ccccc2OCC(=O)O)ccn1 (stereo not given) | -5.11%
CCn1cc(CN2CCc3nc(N4CCOCC4)nc(O)c3CC2)cn1 | 7.44%
Cc1noc2nc(C3CCN(Cc4ccncc4)CC3)cc(C(F)F)c12 | 31.7%
CN(C)C(=O)C1CN(Cc2c[nH]cn2)CCN(C2CCOCC2)C1 (stereo not given) | -0.471%
Cc1ccc(CC(=O)N(C)CC2(O)CCN(c3ccccn3)C2)s1 (stereo not given) | -6.87%
CC(=O)N1CCCC1c1cccc(Cc2ccccc2F)n1 (stereo not given) | 35.5%
CC(=O)Nc1nc(C2CCN(CC(N)=O)CC2)cs1 | -3.74%
Clc1ccc(CN2CCC3(CC2)CC(c2cccnc2)=NO3)cc1 | 3.85%
CN1CC(=O)N(c2ccccc2)Cc2c(NC3CC3)ncnc21 | 0.416%
Cc1ccc2nc(C3CCN(CC(C)C)CC3)nc(O)c2c1 | -6.3%
CC1CCN(CC(=O)NC2CCN(C(C)c3ccccc3)CC2)CC1 (stereo not given) | -12.3%
CN(C)[C@@H]1CN(Cc2ccccn2)C[C@H]1c1cn(C)c2ccccc12 | 12%
CN(C)[C@@H]1CN(Cc2ccccc2O)C[C@H]1c1cn(C)c2ccccc12 | 44.4%
CNCc1ccc([C@@H]2CN(C(C)=O)C[C@H]2C(=O)N(C)C)cc1 | -1.57%
Cc1nc(NC(=O)C2(C)CN(C)CCO2)sc1C (stereo not given) | -2.07%
Cc1nc(C2(O)CCCNCC2)sc1CCOc1ccc(Cl)cc1 (stereo not given) | 31.6%
CCc1ncc(CN(CCc2ccccc2)Cc2cccs2)cn1 | -2.18%
c1ccc(CC2CCN(Cc3ccnc(-c4cccnc4)n3)CC2)cc1 | -3.3%
Cn1cc(CN2CCC(c3cc(COc4cccc(Cl)c4)[nH]n3)C2)cn1 (stereo not given) | -0.141%
